Results reported in patent US8410161B2, “Thioxanthone ring system derivatives” (National Defense Medical Center, priority 2010, dated 2013).

Tests used:
BT-549 = assay: NCI in vitro DTP human cell line screen, BT-549; type: cell-based; settings: Breast Cancer, 1.00E−5 Molar
Experimental: (§1) Then, a cell toxicity assay of the cancer lines made by National Cancer Institute will be discussed as follows. The cell toxicity assay is performed by choosing ten compounds (existing certification numbers) from the 59 compounds disclosed in the present invention first.

OVCAR-3 = assay: NCI in vitro DTP human cell line screen, OVCAR-3; type: cell-based; settings: Ovarian Cancer, 1.00E−5 Molar
Experimental: as §1

NCI-H522 = assay: NCI in vitro DTP human cell line screen, NCI-H522; type: cell-based; settings: Non-Small Cell Lung Cancer, 1.00E−5 Molar
Experimental: as §1

MOLT-4 = assay: NCI in vitro DTP human cell line screen, MOLT-4; type: cell-based; settings: Leukemia, 1.00E−5 Molar
Experimental: as §1

A3 cell lines = assay: MTT assay, A3 cell lines (lung cancer stem cell); type: cell-based
From the text: Please to FIG. 4B, various cell viabilities of the A3 cell lines can be obtained through the MTT assay and illustrated in FIG. 4B while the compounds No. 1˜30 are used to treat A3 cell lines, wherein A3 cell lines are lung cancer stem cell.

RPMI-8226 = assay: NCI in vitro DTP human cell line screen, RPMI-8226; type: cell-based; settings: Leukemia, 1.00E−5 Molar
Experimental: as §1

SN12C = assay: NCI in vitro DTP human cell line screen, SN12C; type: cell-based; settings: Renal Cancer, 1.00E−5 Molar
Experimental: as §1

OVCAR-4 = assay: NCI in vitro DTP human cell line screen, OVCAR-4; type: cell-based; settings: Ovarian Cancer, 1.00E−5 Molar
Experimental: as §1

NCI-H23 = assay: NCI in vitro DTP human cell line screen, NCI-H23; type: cell-based; settings: Non-Small Cell Lung Cancer, 1.00E−5 Molar
Experimental: as §1

NCI-H460 = assay: NCI in vitro DTP human cell line screen, NCI-H460; type: cell-based; settings: Non-Small Cell Lung Cancer, 1.00E−5 Molar
Experimental: as §1

DU145 = assay: NCI in vitro DTP human cell line screen, DU145; type: cell-based; settings: Prostate Cancer, 1.00E−5 Molar
Experimental: as §1

LOX IMVI = assay: NCI in vitro DTP human cell line screen, LOX IMVI; type: cell-based; settings: Melanoma, 1.00E−5 Molar
Experimental: as §1

HCT-15 = assay: NCI in vitro DTP human cell line screen, HCT-15; type: cell-based; settings: Colon Cancer, 1.00E−5 Molar
Experimental: as §1

PC-3 = assay: NCI in vitro DTP human cell line screen, PC-3; type: cell-based; settings: Prostate Cancer, 1.00E−5 Molar
Experimental: as §1

SF-539 = assay: NCI in vitro DTP human cell line screen, SF-539; type: cell-based; settings: CNS Cancer, 1.00E−5 Molar
Experimental: as §1

NCI-H322M = assay: NCI in vitro DTP human cell line screen, NCI-H322M; type: cell-based; settings: Non-Small Cell Lung Cancer, 1.00E−5 Molar
Experimental: as §1

MCF7 = assay: NCI in vitro DTP human cell line screen, MCF7; type: cell-based; settings: Breast Cancer, 1.00E−5 Molar
Experimental: as §1

A control cell lines = assay: MTT assay, A control cell lines (lung cancer cell); type: cell-based
From the text: Please refer to Table 1 and FIGS. 4A-4C. According to a MTT assay (Table 1), various cell viabilities of the A control cell lines can be obtained and illustrated in FIG. 4A while the compounds No. 2˜30 are used to treat A control cell lines, wherein A control cell lines are lung cancer cell.

HS 578-T = assay: NCI in vitro DTP human cell line screen, HS 578-T; type: cell-based; settings: Breast Cancer, 1.00E−5 Molar
Experimental: as §1

M14 = assay: NCI in vitro DTP human cell line screen, M14; type: cell-based; settings: Melanoma, 1.00E−5 Molar
Experimental: as §1

SW-620 = assay: NCI in vitro DTP human cell line screen, SW-620; type: cell-based; settings: Colon Cancer, 1.00E−5 Molar
Experimental: as §1

RXF 393 = assay: NCI in vitro DTP human cell line screen, RXF 393; type: cell-based; settings: Renal Cancer, 1.00E−5 Molar
Experimental: as §1

OVCAR-8 = assay: NCI in vitro DTP human cell line screen, OVCAR-8; type: cell-based; settings: Ovarian Cancer, 1.00E−5 Molar
Experimental: as §1

TK-10 = assay: NCI in vitro DTP human cell line screen, TK-10; type: cell-based; settings: Renal Cancer, 1.00E−5 Molar
Experimental: as §1

HL-60(TB) = assay: NCI in vitro DTP human cell line screen, HL-60(TB); type: cell-based; settings: Leukemia, 1.00E−5 Molar
Experimental: as §1

UACC-257 = assay: NCI in vitro DTP human cell line screen, UACC-257; type: cell-based; settings: Melanoma, 1.00E−5 Molar
Experimental: as §1

SNB-19 = assay: NCI in vitro DTP human cell line screen, SNB-19; type: cell-based; settings: CNS Cancer, 1.00E−5 Molar
Experimental: as §1

SK-OV-3 = assay: NCI in vitro DTP human cell line screen, SK-OV-3; type: cell-based; settings: Ovarian Cancer, 1.00E−5 Molar
Experimental: as §1

SF-268 = assay: NCI in vitro DTP human cell line screen, SF-268; type: cell-based; settings: CNS Cancer, 1.00E−5 Molar
Experimental: as §1

SNB-75 = assay: NCI in vitro DTP human cell line screen, SNB-75; type: cell-based; settings: CNS Cancer, 1.00E−5 Molar
Experimental: as §1

HCT-116 = assay: NCI in vitro DTP human cell line screen, HCT-116; type: cell-based; settings: Colon Cancer, 1.00E−5 Molar
Experimental: as §1

MDA-MB-435 = assay: NCI in vitro DTP human cell line screen, MDA-MB-435; type: cell-based; settings: Melanoma, 1.00E−5 Molar
Experimental: as §1

MDA-MB-468 = assay: NCI in vitro DTP human cell line screen, MDA-MB-468; type: cell-based; settings: Breast Cancer, 1.00E−5 Molar
Experimental: as §1

SF-295 = assay: NCI in vitro DTP human cell line screen, SF-295; type: cell-based; settings: CNS Cancer, 1.00E−5 Molar
Experimental: as §1

60 cancer lines = assay: NCI cell toxicity assay of 60 cancer lines, whole panel summary; type: cell-based, human; settings: mean over all cell lines; 1.00E−5 Molar
Experimental: as §1

SR = assay: NCI in vitro DTP human cell line screen, SR; type: cell-based; settings: Leukemia, 1.00E−5 Molar
Experimental: as §1

HCC-2998 = assay: NCI in vitro DTP human cell line screen, HCC-2998; type: cell-based; settings: Colon Cancer, 1.00E−5 Molar
Experimental: as §1

SK-MEL-2 = assay: NCI in vitro DTP human cell line screen, SK-MEL-2; type: cell-based; settings: Melanoma, 1.00E−5 Molar
Experimental: as §1

HT29 = assay: NCI in vitro DTP human cell line screen, HT29; type: cell-based; settings: Colon Cancer, 1.00E−5 Molar
Experimental: as §1

CCRF-CEM = assay: NCI in vitro DTP human cell line screen, CCRF-CEM; type: cell-based; settings: Leukemia, 1.00E−5 Molar
Experimental: as §1

UO-31 = assay: NCI in vitro DTP human cell line screen, UO-31; type: cell-based; settings: Renal Cancer, 1.00E−5 Molar
Experimental: as §1

NCI-H226 = assay: NCI in vitro DTP human cell line screen, NCI-H226; type: cell-based; settings: Non-Small Cell Lung Cancer, 1.00E−5 Molar
Experimental: as §1

[1] = MTT assay, HEL299 fibroblast; type: cell-based; settings: human
From the text: Please refer to FIG. 4C, various cell viabilities of the HEL299 cell lines can be obtained through the MTT assay while the compounds No. 1˜30 are used to treat HEL299 cell lines, wherein HEL299 cell lines are fibroblast.

K562 = assay: NCI in vitro DTP human cell line screen, K562; type: cell-based; settings: Leukemia, 1.00E−5 Molar
Experimental: as §1

NCI/ADR-RES = assay: NCI in vitro DTP human cell line screen, NCI/ADR-RES; type: cell-based; settings: Ovarian Cancer, 1.00E−5 Molar
Experimental: as §1

KM12 = assay: NCI in vitro DTP human cell line screen, KM12; type: cell-based; settings: Colon Cancer, 1.00E−5 Molar
Experimental: as §1

ACHN = assay: NCI in vitro DTP human cell line screen, ACHN; type: cell-based; settings: Renal Cancer, 1.00E−5 Molar
Experimental: as §1

MALME-3M = assay: NCI in vitro DTP human cell line screen, MALME-3M; type: cell-based; settings: Melanoma, 1.00E−5 Molar
Experimental: as §1

786-0 = assay: NCI in vitro DTP human cell line screen, 786-0; type: cell-based; settings: Renal Cancer, 1.00E−5 Molar
Experimental: as §1

MDA-MB-231/ATCC = assay: NCI in vitro DTP human cell line screen, MDA-MB-231/ATCC; type: cell-based; settings: Breast Cancer, 1.00E−5 Molar
Experimental: as §1

HOP-92 = assay: NCI in vitro DTP human cell line screen, HOP-92; type: cell-based; settings: Non-Small Cell Lung Cancer, 1.00E−5 Molar
Experimental: as §1

OVCAR-5 = assay: NCI in vitro DTP human cell line screen, OVCAR-5; type: cell-based; settings: Ovarian Cancer, 1.00E−5 Molar
Experimental: as §1

COLO 205 = assay: NCI in vitro DTP human cell line screen, COLO 205; type: cell-based; settings: Colon Cancer, 1.00E−5 Molar
Experimental: as §1

SK-MEL-28 = assay: NCI in vitro DTP human cell line screen, SK-MEL-28; type: cell-based; settings: Melanoma, 1.00E−5 Molar
Experimental: as §1

U251 = assay: NCI in vitro DTP human cell line screen, U251; type: cell-based; settings: CNS Cancer, 1.00E−5 Molar
Experimental: as §1

IGROV1 = assay: NCI in vitro DTP human cell line screen, IGROV1; type: cell-based; settings: Ovarian Cancer, 1.00E−5 Molar
Experimental: as §1

SK-MEL-5 = assay: NCI in vitro DTP human cell line screen, SK-MEL-5; type: cell-based; settings: Melanoma, 1.00E−5 Molar
Experimental: as §1

CAKI-1 = assay: NCI in vitro DTP human cell line screen, CAKI-1; type: cell-based; settings: Renal Cancer, 1.00E−5 Molar
Experimental: as §1

UACC-62 = assay: NCI in vitro DTP human cell line screen, UACC-62; type: cell-based; settings: Melanoma, 1.00E−5 Molar
Experimental: as §1

EKVX = assay: NCI in vitro DTP human cell line screen, EKVX; type: cell-based; settings: Non-Small Cell Lung Cancer, 1.00E−5 Molar
Experimental: as §1

T-47D = assay: NCI in vitro DTP human cell line screen, T-47D; type: cell-based; settings: Breast Cancer, 1.00E−5 Molar
Experimental: as §1

## O=c1c2ccccc2sc2c(Cl)c(Sc3ccccc3)ccc12 [No. 6, 4-Chloro-3-(phenylthio)-9H-thioxanthen-9-one]
BT-549
  Growth Percent: 107.30%
OVCAR-3
  Growth Percent: 108.01%
NCI-H522
  Growth Percent: 84.11%
MOLT-4
  Growth Percent: 99.77%
A3 cell lines
  cell viabilities of A3 cell lines (MTT assay): 103 ± 13.0%
RPMI-8226
  Growth Percent: 102.11%
SN12C
  Growth Percent: 87.55%
OVCAR-4
  Growth Percent: 99.56%
NCI-H23
  Growth Percent: 84.67%
NCI-H460
  Growth Percent: 108.87%
DU145
  Growth Percent: 108.05%
LOX IMVI
  Growth Percent: 96.25%
HCT-15
  Growth Percent: 92.60%
PC-3
  Growth Percent: 90.81%
SF-539
  Growth Percent: 104.85%
NCI-H322M
  Growth Percent: 96.11%
MCF7
  Growth Percent: 82.14%
A control cell lines
  cell viabilities of A control cell lines (MTT assay): 99.7 ± 4.76%
HS 578-T
  Growth Percent: 119.59%
M14
  Growth Percent: 104.30%
SW-620
  Growth Percent: 96.96%
RXF 393
  Growth Percent: 110.95%
OVCAR-8
  Growth Percent: 94.68%
TK-10
  Growth Percent: 97.85%
HL-60(TB)
  Growth Percent: 103.53%
UACC-257
  Growth Percent: 102.79%
SNB-19
  Growth Percent: 98.01%
SK-OV-3
  Growth Percent: 96.13%
SF-268
  Growth Percent: 93.39%
SNB-75
  Growth Percent: 82.75%
HCT-116
  Growth Percent: 98.18%
MDA-MB-435
  Growth Percent: 103.22%
MDA-MB-468
  Growth Percent: 82.54%
SF-295
  Growth Percent: 100.33%
60 cancer lines
  Growth Percent, Mean: 96.75%
SR
  Growth Percent: 91.41%
HCC-2998
  Growth Percent: 106.34%
SK-MEL-2
  Growth Percent: 104.71%
HT29
  Growth Percent: 102.56%
CCRF-CEM
  Growth Percent: 96.58%
UO-31
  Growth Percent: 73.68%
NCI-H226
  Growth Percent: 85.36%
[1]
  viability: 107 ± 2.62%
K562
  Growth Percent: 101.65%
NCI/ADR-RES
  Growth Percent: 96.88%
KM12
  Growth Percent: 99.82%
ACHN
  Growth Percent: 94.03%
MALME-3M
  Growth Percent: 92.44%
786-0
  Growth Percent: 111.45%
MDA-MB-231/ATCC
  Growth Percent: 93.94%
HOP-92
  Growth Percent: 76.04%
OVCAR-5
  Growth Percent: 104.51%
COLO 205
  Growth Percent: 103.82%
SK-MEL-28
  Growth Percent: 113.07%
U251
  Growth Percent: 94.85%
IGROV1
  Growth Percent: 91.62%
SK-MEL-5
  Growth Percent: 95.50%
CAKI-1
  Growth Percent: 84.00%
UACC-62
  Growth Percent: 79.70%
EKVX
  Growth Percent: 94.90%
T-47D
  Growth Percent: 87.90%
